Measured values taken from patent publication US12213958B2, “Compositions, methods, systems and/or kits for preventing and/or treating neoplasms” (Research Cancer Institute of America, priority 2017, dated 2025).

Legend:
[1] = tested on: glioma cells; settings: cited from earlier work
[2] = cited from earlier work
[3] = tested on: OVCAR 3 Cancer cells; experiment: Nanoformulated quercetin in mice with implanted tumor; settings: mouse, in vivo
Protocol: Animals—Immunodeficient, female athymic mice aged 5-6 weeks and weighing between 18 and 20 g were purchased from Taconic Biosciences (Albany, NY). All animal studies were conducted at the animal facility of the Veteran Affairs Medical Center, Albany, NY in accordance with and approved by institutional guidelines for humane animal treatment and according to the current guidelines. Mice were maintained under specific pathogen-free conditions and housed under controlled conditions of temperature (20-24° C.) and humidity (60-70%) and 12 h light/dark cycle with ad libitum access to water and food. Mice were allowed to acclimatize for 5 d prior to the start of study.
Treatment—OVCAR 3 Cancer cells (1×10^6) were implanted subcutaneously in right flank of each animal. In the first set of experiments, control, free Quercetin (3 mg/kg), NPS-quercetin(3 mg/kg), and FA-NPs-quercetin (3 mg/kg) were injected subcutaneously to the mice everyday (for 14 days). The control was PBS, after humane sacrifice of animals at 14 days, tumors were harvested and amount of QC was measured.

| SMILES | angiogenesis [1] | water solubility [2] | adverse toxic effect on the health of tumor bearing mice [3] |
| --- | --- | --- | --- |
| O=c1c(O)c(-c2ccc(O)c(O)c2)oc2cc(O)cc(O)c12 [Quercetin, quercetin] | suppression of angiogenesis | not water soluble |  |
| O=c1c(O)c(-c2ccc(O)c(O)c2)oc2cc(O)cc(O)c12 [Free QC, quercetin] |  |  | does not have any adverse toxic effect |
